In paper PMC8571713 (Experimental neurology, 2021):

Tests used:
hSARM1 (human SARM1) = target: T1, hSARM1 (human SARM1) (Homo sapiens, UniProt Q6SZW1); test: STD NMR with NMN competition; type: biochemical
T1 sequence (Q6SZW1 28-724): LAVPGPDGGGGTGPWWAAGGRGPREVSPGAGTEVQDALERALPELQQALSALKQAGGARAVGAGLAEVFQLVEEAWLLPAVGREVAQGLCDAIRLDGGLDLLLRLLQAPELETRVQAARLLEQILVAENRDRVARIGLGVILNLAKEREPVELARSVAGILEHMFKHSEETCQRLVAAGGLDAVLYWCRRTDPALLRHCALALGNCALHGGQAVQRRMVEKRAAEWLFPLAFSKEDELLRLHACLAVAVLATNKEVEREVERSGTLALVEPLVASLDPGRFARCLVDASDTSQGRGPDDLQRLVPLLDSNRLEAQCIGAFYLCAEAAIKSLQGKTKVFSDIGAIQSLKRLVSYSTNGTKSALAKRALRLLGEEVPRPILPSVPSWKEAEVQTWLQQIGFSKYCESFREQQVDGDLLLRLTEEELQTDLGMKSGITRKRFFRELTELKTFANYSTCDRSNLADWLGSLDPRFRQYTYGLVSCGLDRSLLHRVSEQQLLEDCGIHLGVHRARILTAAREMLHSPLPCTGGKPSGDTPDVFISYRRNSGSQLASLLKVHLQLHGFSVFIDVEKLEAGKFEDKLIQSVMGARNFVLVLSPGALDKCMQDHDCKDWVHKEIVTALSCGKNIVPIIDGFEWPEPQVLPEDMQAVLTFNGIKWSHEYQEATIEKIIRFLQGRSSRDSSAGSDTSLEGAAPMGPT

[1] = target: T2, dSARM1 ARM (Drosophila SARM1 ARM domain) (Drosophila melanogaster, UniProt Q6IDD9); test: crystal structure; type: binding
T2 sequence (Q6IDD9 315-678): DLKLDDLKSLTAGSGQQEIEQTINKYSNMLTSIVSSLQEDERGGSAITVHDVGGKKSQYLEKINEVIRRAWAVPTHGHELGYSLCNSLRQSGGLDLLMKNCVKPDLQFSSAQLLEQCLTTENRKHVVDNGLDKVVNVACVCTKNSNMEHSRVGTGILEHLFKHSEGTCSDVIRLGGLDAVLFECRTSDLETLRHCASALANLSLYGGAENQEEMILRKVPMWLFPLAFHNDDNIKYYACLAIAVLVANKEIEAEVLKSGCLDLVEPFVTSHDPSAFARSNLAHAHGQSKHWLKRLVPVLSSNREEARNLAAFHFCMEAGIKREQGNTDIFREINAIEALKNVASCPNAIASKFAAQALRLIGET

Compound: O=C([O-])c1ccc[n+]([C@@H]2O[C@H](COP(=O)(O)O)[C@@H](O)[C@H]2O)c1 [NaMN, nicotinic acid mononucleotide]
- IC50 (hSARM1 (human SARM1)): 93.3 µM
- crystal structure (3.31 Å, soaking with 20 mM NaMN); STD NMR [1]: we determined the crystal structure of the NaMN-bound ARM domain of Drosophila SARM1 (dSARM1ARM) (PDB: 7RTC
